Measured values from patent publication US6121248A, “Anti-viral agent” (priority 1998, dated 2000).
Values after ≈ are worked out from the molar mass of the structure shown. Where two headings read alike, the source gives them in different places.

Legend:
cytomegalovirus = experiment: Anti-viral activity against cytomegalovirus, microplaque reduction method; format: cell-based, human cytomegalovirus (AD 169 strain); conditions: for EC50: Human betaherpesvirus 5, MRC5, 144 h, human cytomegalovirus AD 169 strain, MRC-5 cells, 37° C., day 6, read-out: ED50 (50% effective density); for SI (selectivity index, CC50/ED50): cytomegalovirus
Procedure: Determination of Anti-viral Activity against Cytomegalovirus
(§1) The anti-viral activity against cytomegalovirus was also determined by the microplaque reduction method in the same manner as in Example 1. That is, MRC-5 cells were cultured in a 96-well microtiter plate until the cells reached the confluent state. Each of the compounds being tested was added to the wells to which a preparation of human cytomegalovirus (AD 169 strain) was subsequently added. The plate was cultured at 37° C. in a CO2 incubator. On day 6 after the culture, physiological saline containing 10% formalin was added to the wells and the plate was allowed to stand overnight to fix the cells to the wells. After washing the plate, the cells were stained with a crystal violet solution and then washed. The focus formation by cytomegalovirus was observed microscopically and the number of the foci was counted.
(§2) The concentration of each compound that inhibits by 50% of the number of foci observed in a group containing no compound was determined as a 50% effective density (ED50).
(§3) The selectivity index (SI), which is the ratio of the cytotoxic concentration to the anti-virally effective density, was determined by the equation: […]

[1] = Cytotoxicity in virus-free MRC-5 cells (Example 1); format: cell-based; conditions: human
Procedure: (§4) The anti-viral activity against varicella-zoster virus was determined by the microplaque reduction method. That is, MRC-5 cells were cultured in a 96-well microtiter plate until the cells reached the confluent state. Each of the compounds being tested was added to the wells to which a preparation of varicella-zoster virus (HOSEN strain) was subsequently added. The plate was cultured at 35° C. in a CO2 incubator. On day 3 after the culture, physiological saline containing 10% formalin was added to the wells and the plate was allowed to stand overnight to fix the cells to the wells. After wasing the plate, the cells were stained with a crystal violet solution and then washed. The focus formation by varicella-zoster virus was observed microscopically and the number of the foci was counted.
The virus-free group in which, in place of the preparation of varicella-zoster virus, the culture medium was added to the MRC-5 cells was also cultured in the same manner.

[2] = Cytotoxicity in virus-free MRC-5 cells (Example 2); format: cell-based; conditions: human
Procedure: as §1
The virus-free group in which, in place of the preparation of cytomegalovirus, the culture medium was added to the MRC-5 cells was also cultured in the same manner.

varicella-zoster virus = experiment: Anti-viral activity against varicella-zoster virus, microplaque reduction method; format: cell-based, varicella-zoster virus (HOSEN strain); conditions: for EC50: Human alphaherpesvirus 3, MRC5, 72 h, varicella-zoster virus HOSEN strain, MRC-5 cells, 35° C., day 3, read-out: ED50 (50% effective density); for SI (selectivity index, CC50/ED50): varicella-zoster virus
Procedure: Determination of Anti-viral Activity against Varicella-zoster Virus
as §4, §2, §3

[3] = Acute toxicity test, variation of body weight of mice; format: in vivo, Mouse: ICR; conditions: 1 or 2 g/kg ip., male ICR mice
Procedure: With respect to 2-thio-5-iodocytosine arabinoside (5-I-AraSC) which was evidenced to have the anti-viral effect in vitro, the acute toxicity was also determined in the following manner.
Mouse: ICR, male, 4 weeks;
Drug: 5-I-AraSC, 1 or 2 g/kg, ip., n=6.
The drug 5-I-AraSC was administered in a dosage of 1 or 2 g/kg to each mouse intraperitoneally, and the variation of a body weight of each mouse was examined.

[4] = MRC-5 cells, virus-free, cultured as in varicella-zoster test (day 3), read-out: CC50 (50% cytotoxic concentration)

SMILES | EC50 (cytomegalovirus) | SI (selectivity index, CC50/ED50) (cytomegalovirus) | CC50 at 72 h ([1]; mrc-5 cells) | CC50 at 144 h ([2]; mrc-5 cells) | EC50 (varicella-zoster virus) | SI (selectivity index, CC50/ED50) (varicella-zoster virus) | CC50 at 72 h [1, 4] | CC50 at 144 h ([2]; MRC-5 cells, virus-free, cultured as in cytomegalovirus test (day 6), read-out: CC50 (50% cytotoxic concentration)) | death of the mice ([3]; during the test) | acute toxicity ([3]; overall conclusion)
Nc1nc(=S)n([C@@H]2O[C@H](CO)[C@@H](O)[C@@H]2O)cc1Br [2-thio-5-bromocytosine arabinoside] | 2.4 µg/mL (≈ 7.1 µM) | > 42 | > 100 µg/mL | > 100 µg/mL | 7.5 µg/mL (≈ 22.2 µM) | > 13 |  |  |  | 
Nc1nc(=S)n([C@@H]2O[C@H](CO)[C@@H](O)[C@@H]2O)cc1F [2-thio-5-fluorocytosine arabinoside] | 0.16 µg/mL (≈ 0.577 µM) | > 625 |  |  | 1.65 µg/mL (≈ 5.95 µM) | > 60 | > 100 µg/mL | > 100 µg/mL |  | 
Nc1nc(=S)n([C@@H]2O[C@H](CO)[C@@H](O)[C@@H]2O)cc1I [2-thio-5-iodocytosine arabinoside] | 0.26 µg/mL (≈ 0.675 µM) | > 385 | > 100 µg/mL | > 100 µg/mL | 0.7 µg/mL (≈ 1.82 µM) | > 143 |  |  | No death of the mice was observed during the test | not so strong
O=c1[nH]c(=S)n([C@@H]2O[C@H](CO)[C@@H](O)[C@@H]2O)cc1I [2-thio-5-iodouracil arabinoside] |  |  |  |  | 3.1 µg/mL (≈ 8.03 µM) | 6.5 | 20 µg/mL (≈ 51.8 µM) |  |  | 
